# Measured values taken from ChEMBL document CHEMBL1201862, “PubChem BioAssay data set” (2004).
# Activity calls are given as the source filed them.
# Tests used:
# [1] = system: H4; assay: Luminescence Cell-Based Dose Response HTS to Identify Activators of 5'UTR Stem-Loop Driven Prion Protein mRNA Translation in H4 Neuroglioblastoma Cells. [Related pubchem assays: 1829 (Project Summary), 1814 (Primary HTS)]; type: functional; details: Homo sapiens
# [2] = target: T1, Oxysterols receptor LXR-beta (Homo sapiens, UniProt P55055); type: functional, cell-based;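 also: agonist activity at LXR measured by a cell-based luminescence readout across a dose range, run as a counterscreen for daf-12 agonists; HEK293 cells with Gal4-LXR fusion and GAL4-driven luciferase reporter; potency for activation of Gal4-LXR reporter so compounds are agonists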
# T1 sequence (P55055 whole entry): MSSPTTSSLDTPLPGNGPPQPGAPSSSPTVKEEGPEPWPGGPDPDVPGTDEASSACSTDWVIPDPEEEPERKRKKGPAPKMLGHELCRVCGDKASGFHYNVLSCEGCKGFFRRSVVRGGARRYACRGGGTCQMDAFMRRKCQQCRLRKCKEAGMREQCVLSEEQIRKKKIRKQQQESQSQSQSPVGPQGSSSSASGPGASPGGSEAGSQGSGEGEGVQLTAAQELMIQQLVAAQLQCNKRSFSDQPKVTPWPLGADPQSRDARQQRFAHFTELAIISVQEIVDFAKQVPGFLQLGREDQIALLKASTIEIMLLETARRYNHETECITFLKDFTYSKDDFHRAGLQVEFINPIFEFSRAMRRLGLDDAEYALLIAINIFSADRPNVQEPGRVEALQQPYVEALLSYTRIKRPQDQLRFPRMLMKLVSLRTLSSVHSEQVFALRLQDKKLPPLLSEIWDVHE
# [3] = target: T2, High affinity choline transporter 1 (Homo sapiens, UniProt Q9GZV3); assay: inhibition of SLC5A7-mediated choline transport – cell-based, HEK-293 hCHT, [3H]-choline uptake, dose response (AID 652177); type: functional
# T2 sequence (Q9GZV3 whole entry): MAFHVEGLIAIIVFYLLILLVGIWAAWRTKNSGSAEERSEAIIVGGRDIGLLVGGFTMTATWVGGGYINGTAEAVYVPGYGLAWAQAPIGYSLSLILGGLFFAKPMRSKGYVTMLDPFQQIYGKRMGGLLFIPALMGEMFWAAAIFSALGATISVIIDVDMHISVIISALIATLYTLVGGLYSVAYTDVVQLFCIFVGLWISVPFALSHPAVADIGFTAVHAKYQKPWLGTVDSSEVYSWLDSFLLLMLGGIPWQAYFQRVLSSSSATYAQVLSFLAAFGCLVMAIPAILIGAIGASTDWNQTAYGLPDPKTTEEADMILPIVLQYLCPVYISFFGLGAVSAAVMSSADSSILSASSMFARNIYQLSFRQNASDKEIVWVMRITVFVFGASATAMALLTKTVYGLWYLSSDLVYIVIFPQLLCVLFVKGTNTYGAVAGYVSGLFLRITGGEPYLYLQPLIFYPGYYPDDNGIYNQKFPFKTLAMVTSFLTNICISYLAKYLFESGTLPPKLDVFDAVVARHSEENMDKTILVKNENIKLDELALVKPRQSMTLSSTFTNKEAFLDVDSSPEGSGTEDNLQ
# [4] = HeLa cell viability loss – 24 h, dry powder, set 2, cytotoxicity control, dose response (AID 651774); type: functional, cell-based
# [5] = blockade of melanocortin 4 receptor signaling – cell-based, plate reader, cherry pick, counter-screen for LGR2 antagonist project, dose response (AID 743444); type: functional;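 also: transfected HEK 293 cells stimulated with alpha-MSH peptide; potency of inhibitors of the alpha-MSH evoked signal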
# [6] = viability loss in HEK293 cells – cell-based, plate reader, cherry-picked samples, cytotoxicity control, dose response (AID 743446); type: functional
# [7] = A549 cell cytotoxicity, dose response, cytotoxicity control, plate reader, cherry-pick, antagonist series (AID 743412); type: functional, cell-based
# [8] = inhibition of bursicon-driven LGR2 cAMP signaling – cell-based, HEK293, CRE-luciferase reporter, cherry pick, dose response (AID 743342); type: functional
# [9] = target: Albumin (Bos taurus, UniProt P02769); assay: Counterscreen for inhibitors of T-cell receptor (TCR)-CD3 interaction: Fluorescence-based biochemical high throughput dose response assay to identify inhibitors of T-cell receptor (TCR)-CD3 interaction using a TAMRA-labeled BSA probe.; type: functional
# [10] = target: T3, Alkaline phosphatase, tissue-nonspecific isozyme (Homo sapiens, UniProt P05186); assay: potency against alkaline phosphatase TNAP – biochemical, luminescent, dose response, SAR follow-up (AID 1056)
# T3 sequence (P05186 whole entry): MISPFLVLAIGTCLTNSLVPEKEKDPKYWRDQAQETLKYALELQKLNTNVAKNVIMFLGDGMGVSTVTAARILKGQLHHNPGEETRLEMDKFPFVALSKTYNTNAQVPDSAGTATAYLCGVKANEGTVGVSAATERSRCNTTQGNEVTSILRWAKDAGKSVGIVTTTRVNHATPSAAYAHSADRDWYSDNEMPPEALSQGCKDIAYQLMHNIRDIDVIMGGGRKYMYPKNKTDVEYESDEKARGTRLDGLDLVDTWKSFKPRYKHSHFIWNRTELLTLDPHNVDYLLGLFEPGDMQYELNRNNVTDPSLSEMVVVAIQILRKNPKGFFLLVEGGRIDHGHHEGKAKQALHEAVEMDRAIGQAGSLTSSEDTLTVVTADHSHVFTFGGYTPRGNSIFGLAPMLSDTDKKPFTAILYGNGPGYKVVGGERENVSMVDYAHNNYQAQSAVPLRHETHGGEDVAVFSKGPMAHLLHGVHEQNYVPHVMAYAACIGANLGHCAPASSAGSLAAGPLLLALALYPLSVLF
# [11] = target: T4, RNA-editing ligase 1, mitochondrial (Trypanosoma brucei brucei, UniProt P86926); assay: inhibition of trypanosome RNA editing ligase – biochemical, fluorescence, Trypanosoma brucei, dose response (AID 1117295); type: functional
# T4 sequence (P86926 whole entry): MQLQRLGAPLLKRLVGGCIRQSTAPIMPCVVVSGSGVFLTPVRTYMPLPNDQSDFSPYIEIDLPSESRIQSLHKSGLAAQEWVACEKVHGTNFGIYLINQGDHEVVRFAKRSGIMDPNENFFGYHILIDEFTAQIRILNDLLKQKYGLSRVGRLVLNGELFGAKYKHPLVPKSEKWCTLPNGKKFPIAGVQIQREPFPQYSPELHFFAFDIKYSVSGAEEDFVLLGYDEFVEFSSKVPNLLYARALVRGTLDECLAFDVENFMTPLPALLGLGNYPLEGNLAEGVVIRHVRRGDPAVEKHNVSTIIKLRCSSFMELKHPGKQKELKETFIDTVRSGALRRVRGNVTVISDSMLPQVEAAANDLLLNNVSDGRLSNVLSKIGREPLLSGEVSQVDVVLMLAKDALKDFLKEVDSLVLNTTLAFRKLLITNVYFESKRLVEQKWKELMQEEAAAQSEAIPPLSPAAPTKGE
# [12] = cells
# [13] = target: Kallikrein-7 (Homo sapiens, UniProt P49862); assay: Fluorescence Intensity-based biochemical primary high throughput dose response assay to identify activators of kallikrein-7 (K7) zymogen.
# [14] = optical artefact potency, substrate without enzyme – biochemical, fluorescence intensity, triplicate, artefact control for kallikrein-7 zymogen activator project, dose response (AID 720493)
# Sequence of Kallikrein-7 (P49862 whole entry): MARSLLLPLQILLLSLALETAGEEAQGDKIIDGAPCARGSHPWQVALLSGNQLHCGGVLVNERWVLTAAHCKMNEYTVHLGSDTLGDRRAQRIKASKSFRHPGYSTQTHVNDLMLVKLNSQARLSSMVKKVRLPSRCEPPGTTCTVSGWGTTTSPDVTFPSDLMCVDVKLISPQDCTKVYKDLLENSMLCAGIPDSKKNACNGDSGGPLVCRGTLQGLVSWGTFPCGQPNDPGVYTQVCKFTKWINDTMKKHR
# Sequence of Albumin (P02769 whole entry): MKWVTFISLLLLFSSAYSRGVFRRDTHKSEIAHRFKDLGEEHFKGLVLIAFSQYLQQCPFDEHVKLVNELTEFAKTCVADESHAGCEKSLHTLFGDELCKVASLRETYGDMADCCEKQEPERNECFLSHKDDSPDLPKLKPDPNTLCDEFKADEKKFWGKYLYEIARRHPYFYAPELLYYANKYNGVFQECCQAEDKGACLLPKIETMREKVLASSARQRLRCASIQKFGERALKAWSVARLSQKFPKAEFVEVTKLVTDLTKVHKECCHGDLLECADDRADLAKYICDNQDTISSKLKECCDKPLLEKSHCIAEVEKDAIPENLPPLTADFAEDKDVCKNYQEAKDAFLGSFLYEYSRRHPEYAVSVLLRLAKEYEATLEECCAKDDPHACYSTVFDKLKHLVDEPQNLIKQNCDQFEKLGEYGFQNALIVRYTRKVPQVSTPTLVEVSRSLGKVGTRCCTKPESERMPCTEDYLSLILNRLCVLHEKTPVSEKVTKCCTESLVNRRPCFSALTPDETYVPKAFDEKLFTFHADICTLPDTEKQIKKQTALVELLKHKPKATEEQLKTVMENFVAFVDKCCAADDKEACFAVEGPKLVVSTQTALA
compound,measurement,setting,value
COC(=O)C1C(=O)c2c([nH]c(C(=O)OC3CCCCC3)c2C)CC1C (centres undefined),EC50,[1],8.72 µM (active)
same,EC50,[2],> 67.5 µM (inactive)
COc1ccc(C(=O)NCc2csc(C)n2)cc1OC1CCN(C(C)C)CC1,IC50,[3],6.18 µM (active)
c1ccc(-c2ccc(CCNC3CCCC3)cc2)cc1,AC50,[4],> 70 µM (inactive)
COc1ccc(S(=O)(=O)N(C)C[C@@H]2OCCCC[C@H](C)Oc3ccc(NS(=O)(=O)c4ccc(Cl)cc4)cc3C(=O)N([C@@H](C)CO)C[C@@H]2C)cc1,AC50,[5],4.58 µM (active)
same,AC50,[6],28.5 µM (active)
same,AC50,[7],5.98 µM (active)
same,AC50,[8],3.79 µM (active)
Cc1nc2ccccc2n1CC(=O)c1ccc(O)c(O)c1,IC50,[9],> 94 µM (inactive)
same,IC50,[10],20.2 µM (active)
same,IC50,[11],> 96.6 µM (inactive)
CC12CC(c3ccccc3O1)C(C(=O)OCc1ccccc1)C(=O)N2 (centres undefined),AC50,[12],0.151 µM (active)
CC1Nc2ccccc2C(=O)N1NS(C)(=O)=O (centres undefined),EC50,[13],10.3 µM (inactive)
same,EC50,[14],> 7.73 µM (active)
